Laboratory results reported in patent US4265906A, “Low mammalian toxic and/or low fish toxic insecticides and/or acaricides” (priority 1978, dated 1981).
Converted amounts (≈) assume the structure as drawn. Where two headings read alike, the source gives them in different places.

Experiments:
[1] = Oral toxicity test (Test Example 10); details: in vivo, male mouse, corn oil
Method: The present compound (1) was dissolved or suspended in a corn oil, and the resulting solution was orally administered to a male mouse (18 to 22 g) at a rate of 0.2 ml/10 g body weight. After 24 hours, the mortality was examined to obtain the median lethal dose (LD50 mg/kg).

[2] = test system: Oryzias latipes / Nephotettix cincticeps; assay: Fish safety coefficient calculated from fish toxicity and insecticidal activity (Test Example 1); details: for Safety coefficient to fishes (a)/(b): TLm48 (Oryzias latipes) divided by concentration in water at LC50 for N. cincticeps
Method: In order to make more clear the low fish toxicity and the high activity to target insects, which are charcteristic of the compounds of this invention, a fish safety coefficient was calculated from the test results of fish toxicity and insecticidal activity by the following equation and shown in Table 2. [formula]
In the case of N. cincticeps, calculation was based on a hyothetical concentration of the test compound in water obtained by assuming that a test preparation of the active ingredient content corresponding to LC50 (ppm) was sprayed over a submerged paddy field, 5 cm in depth of water, at a rate of 100 liters per 10 ares and total active ingredient was absorbed by the water.
For example, in the case of compound (1) of this invention, the quantity of water per 10 ares of the submerged paddy field, 5 cm in depth of water, is 50 tons. If a preparation of the active ingredient content equivalent to LC50 (ppm) of the compound (1) is sprayed at a rate of 100 liters per 10 ares, the concentration of the compound (1) in the water is 0.007 ppm. The fish toxicity [TLm48 ] of the compound (1) is 6.0 ppm. The fish safety coefficient (857.1) is obtained by dividing 6.0 by 0.007.

[3] = Fish toxicity test, median tolerance limit 48 hours (Test Example 1); assay type: in vivo, Oryzias latipes (killifish); details: in vivo; Oryzias latipes, 48 hours; read-out: Fish toxicity TLm48 (a)
Method: (§1) Ten member group of Oryzias latipes (0.2-0.3 g/fish) was released in a 10-liter glass vessel containing 10 liters of a test preparation which was dissolved or suspended in "Tween 80" and diluted successively with dechlorinated tap water. After 48 hours, the dead and alive were counted to determine median tolerance limit (48 hours) [TLm48 (ppm)] value.

[4] = test system: R-type Nephotettix cincticeps; assay: Insecticidal activity test, activity to Nephotettix cincticeps (Test Example 1); assay type: in vivo
Method: 2. Insecticidal activity test.
Test emulsion preparations were prepared in the same manner as in Formulation Example 1.
Activity to Nephotettix cinciticips
The test insect was resistant to carbamates (hereinafter referred to as R-type). The active ingredient content of test preparation was varied in 4 levels within the range of 500 to 1 ppm. The test preparation was sprayed over 180-ml plastic cups grown with rice plant one-month old from sowing and placed on a turn table, the application rate having been 15 cc/2 cups. After air drying, the plant was covered with a wire-screen cage. A group of 15 female adults of R-type Nephotettix cincticeps was released in each cage and kept at 26° C. in an artificial climate condition. After 24 hours, the dead and alive were observed. The median lethal concentration [LC50 (ppm)] was calculated from the mortality determined by 3-repetition test.

[5] = Toxicity to carps (Test Example 12); assay type: in vivo; details: carp, dechlorinated tap water, read-out: TLm48
Method: (§2) The dust of the present compound (1) prepared in Formulation Example 2 was diluted with dechlorinated tap water to a predetermined concentration of active ingredient. Ten liters of the test solution was placed in a 10-liter glass vessel, and 10 killifishes (Oryzias latipes) were liberated therein. After 48 hours, the dead and alive were examined, and TLm48 (ppm) was calculated from the concentration of active ingredient.
Toxicity to carps was tested according to the test method for toxicity to fishes described in Test Example 11, and TLm48 (ppm) values after 48 hours were obtained.

[6] = Fish toxicity of dust, killifishes (Test Example 11); assay type: in vivo; details: dechlorinated tap water, dust of Formulation Example 2, Oryzias latipes, read-out: TLm48
Method: as §2

[7] = test system: third instar larvae of rice stem borer (Chilo suppressalis); assay: Rice seedling dipping test, rice stem borer (Test Example 6); assay type: in vivo; details: 240 h, 10 days, read-out: larvae killed
Method: The emulsifiable concentrate of the present compound (1) prepared in Formulation Example 1 was diluted with water so that the concentration of active ingredient was 500 ppm. Five rice seedlings which had elapsed 10 days after sowing were dipped in the dilute solution and air-dried. The rice seedlings and 10 third instar larvae of rice stem borer (Chilo suppressalis) were placed in a plastic cup (diameter 5.5 cm, height 3.5 cm) which was then placed in an artificial climate chamber kept at 26° C.

Laodelphax striatellus = assay: Insecticidal activity, Laodelphax striatellus (Test Example 4); assay type: in vivo; details: Laodelphax striatellus female adults, 24 hours, 26° C.
Method: The emulsion preparation containing the compound (1) of this invention, described in Formulation Example 1, was diluted with water. The active ingredient content of the test prepartion was varied in 4 levels within the range of 150 to 10 ppm. The test preparation was sprayed over 180 ml plastic cups grown with rice plant and placed on a turn table the application rate having been 15 cc/2 cups. After air drying, the plant was covered with a wire-screen cage. A group of 15 female adults of Laodelphax striatellus was released in each cage and kept at 26° C. in an artificial climate condition. After 24 hours, the dead and alive were observed. The median lethal concentration [LC50 (ppm)] was calculated from the mortality determined by 3-repetition test.

[8] = test system: killifishes (Oryzias latipes); assay: Model paddy field box test, killifishes (Test Example 13); assay type: in vivo; details: wettable powder, 100 ppm, 100 liter/10 are, water depth 5 cm, after 48 hours
Method: (§3) The wettable powder of the present compound (1) prepared in Formulation Example 3 was diluted with water so that the concentration of active ingredient was 100 ppm. Soil was placed in a plastic box [5m×5m×2m (deep)] to a level of 50 cm from the bottom, and rice plants about 50 cm high were transplanted at intervals of 50 cm. Water was then placed in the bos so that water depth was 5 cm, and 20 killifishes (Oryzias latipes) were liberated therein. Thereafter, the above dilute solution was sprayed on the box at a rate of 100 liter/10 are. The solution fell on the rice plants as well as on the water surface.
(§4) One hour after treatment, 100 female adults of green rice leafhopper (Nephotettix cincticeps) were liberated in the box which was immediately covered with a net.

[9] = test system: carmine mites (Tetranychus cinnabarinus); assay: Acaricidal test on rice plants, carmine mites (Test Example 8); assay type: in vivo; details: 500 ppm, after 10 days
Method: The emulsifiable concentrate of the present compound (1) prepared in Formulation Example 1 was diluted with water so that the concentration of active ingredient was 500 ppm. The dilute solution was then thoroughly sprayed on rice plants (grown in a 1/10,000 are Wagner's pot) on which carmine mites (Tetranychus cinnabarinus) in all stages were made parasitic.

[10] = test system: green rice leafhopper (Nephotettix cincticeps); assay: Residual effect test (Test Example 9); assay type: in vivo; details: 400 ppm, 24 hours
Method: The emulsifiable concentrate of the present compound (1) prepared in Formulation Example 1 was diluted with water so that the concentration of active ingredient was 400 ppm. Thereafter, 20 cc of the dilute solution was sprayed on rice plants grown in a 1/10,000 are Wagner's pot. The rice plants were air-dried and covered with a wire-screen cage, and 15 female adults of green rice leafhopper (Nephotettix cincticeps) were liberated therein. After 24 hours, the dead and alive were examined to obtain mortality. In order to examine the residual effect, the pot was then left as it was for 7 days, and the test insects were liberated in the same manner as above. After 24 hours, the mortality was examined. The experiment was carried out in a greenhouse and the number of repetitions was three.

[11] = test system: WHO strain housefly female adults (Musca domestica); assay: Topical application to housefly (Test Example 5); assay type: in vivo; details: 24 hours
Method: The present compound (1) was diluted with acetone to four different concentrations.
The acetone dilute solution was topically applied to the ventral thorax of WHO strain housefly female adults (Musca domestica), at a rate of 0.5 μl/adult by means of a microsyringe.
The adults were then liberated in a plastic cup of 12 cm in diameter and given a 1% sugar water. After 24 hours, the dead and alive were examined. The median lethal does (LD50 μg/adult) was obtained from the mortality of 50 adults per group.

[12] = test system: full grown larvae of Aedes aegypty (Culex pipiens pallens); assay: Mosquito larvae test (Test Example 7); assay type: in vivo; details: 24 hours, read-out: larvae killed
Method: The emulsifiable concentrate of the present compound (1) prepared in Preparation example 1 was diluted with distilled water so that the concentration of active ingredient was 0.1 ppm. One hundred milliliters of the dilute solution was placed in a 180-ml plastic cup, and 30 full grown larvae of Aedes aegypty (Culex pipiens pallens) were liberated therein. After 24 hours, 100% of the larvae could be killed.

[13] = test system: green rice leafhopper (Nephotettix cincticeps); assay: Model paddy field box test, green rice leafhopper (Test Example 13); assay type: in vivo; details: wettable powder, 100 ppm, 100 liter/10 are, after 48 hours
Method: as §3, §4

Oryzias latipes = assay: Fish toxicity test, median tolerance limit 48 hours (Test Example 1); assay type: in vivo, Oryzias latipes (killifish); details: killifish, in words
Method: as §1

[14] = test system: R-type Nephotettix cincticeps; assay: Mortality by isomer mixtures on rice plant (Test Example 2); assay type: in vivo; details: 10 ppm active ingredient, 24 hours
From the text: The present compound (1) and (2) were mixed in a predetermined proportion, formulated into an emulsifiable concentrate according to Formulation Example 1 and diluted with water so that the amount of active ingredient was 10 ppm.
The test preparation was sprayed over rice plant in tillering stage planted in a 1/10,000 are Wagner pot, at a rate of 15 cc per pot. After airdrying, the plant was covered with a wire-screen cage into which were released 15 female adults of R-type Nephotettix cincticeps. The pot was kept at 26° C. in an artificial climate condition. After 24 hours, the dead and alive were observed and the mortality was obtained by 3-repetition test.

[15] = R-type (carbamate-resistant) Nephotettix cincticeps female adults, 24 hours, 26° C., read-out: LC50

SMILES	LD50 at 24 h [1] [mg/kg]	Safety coefficient to fishes (a)/(b) [2]	LC50 at 48 h [3] [µg/mL]	LC50 [4, 15] [µg/mL]	other results
CNC(=O)Oc1ccc(C)c(C)c1 [(F)]	60	17.0	11.9 (≈ 66.4 µM)		LC50 ([4]; Nephotettix cincticeps, 24 h): 350 µg/mL (≈ 1950 µM)
CC1(C)C(C=C(Cl)Cl)C1C(=O)OC(C#N)c1cccc(Oc2ccc(Br)cc2)c1 (racemic) [(A), m-(p-bromophenoxy)-α-cyanobenzyl dl-cis, trans-2,2-dimethyl-3-(2,2-dichlorovinyl)cyclopropanecarboxylate]		56.3	0.9 (≈ 1.82 µM)	8 (≈ 16.2 µM)	
CC1(C)C(C=C(Cl)Cl)C1C(=O)OC(C#N)c1cccc(Oc2ccccc2)c1 (racemic) [Reference compound (D), m-phenoxy-α-cyanobenzyl dl-cis,trans-2,2-dimethyl-3-(2,2-dichlorovinyl)-cyclopropanecarboxylate]	112	2.6	0.026 (≈ 0.0625 µM)	5 (≈ 12 µM)	LC50 at 48 h [5]: ≤ 0.01 µg/mL
CC1(C)[C@H](C=C(Cl)Cl)[C@H]1C(=O)OC(C#N)c1cccc(Oc2ccc(Br)cc2)c1 (relative stereo) [Compound (1), m-(p-bromophenoxy)-α-cyanobenzyl dl-trans-2,2-dimethyl-3-(2,2-dichlorovinyl)cyclopropanecarboxylate]	> 2000	857.1	6 (≈ 12.1 µM)	3.5 (≈ 7.07 µM)	LC50 at 48 h [6]: > 10 µg/mL; mortality at 500 ppm [7]: 100%; LC50 at 48 h [5]: > 10 µg/mL; LC50 (Laodelphax striatellus): 70 µg/mL (≈ 141 µM); survival of killifishes [8]: all of the killifishes were alive; degree of damage by the carmine mites [9]: the spreading of damage could be prevented; Mortality (%), effect immediately after treatment [10]: 100%; Mortality (%), effect 7 days after treatment ([10]; insects liberated 7 days after treatment): 100%; LD50 [11]: 0.035 μg/adult; mortality at 0.1 ppm [12]: 100%; safety coefficient to fishes compared with reference compounds ([2]; in words): shows a very high value as compared with that of the reference compounds; green rice leafhoppers found [13]: no green rice leafhoppers were found; toxicity to killifish compared with reference compounds (Oryzias latipes): lower in toxicity to killifish than the reference compounds (A), (C), (D) and (E); insecticidal activity compared with reference compounds ([4]; Nephotettix cincticeps, in words): higher in insecticidal activity than the reference compounds (A), (C) and (F)
CC1(C)C(C=C(Cl)Cl)C1C(=O)OCc1cccc(Oc2ccccc2)c1 (racemic) [(C), m-phenoxybenzyl dl-cis,trans-2,2-dimethyl-3-(2,2-dichlorovinyl)cyclopropanecarboxylate]	650	0.8	0.027 (≈ 0.069 µM)	18 (≈ 46 µM)	
CC1(C)C(C=C(Cl)Cl)C1C(=O)OC(C#N)c1cccc(Oc2ccc(F)cc2)c1 (racemic) [(E), m-(p-fluorophenoxy)-α-cyanobenzyl dl-cis,trans-2,2-dimethyl-3-(2,2-dichlorovinyl)cyclopropanecarboxylate]	300	0.3	0.003 (≈ 0.00691 µM)	5 (≈ 11.5 µM)	
CC(C)=CC1C(C(=O)OCc2cccc(Oc3ccccc3)c2)C1(C)C (racemic) [(B), m-phenoxybenzyl dl-cis,trans chrysanthemate]					mortality at 10 ppm [14]: 10%
